According to ChEMBL document CHEMBL1147779, “N-Hydroxyurea as zinc binding group in matrix metalloproteinase inhibition: mode of binding in a complex with MMP-8” (Bioorg Med Chem Lett, 2006):

Columns and labels:
[1] = molecular target: 72 kDa type IV collagenase (Homo sapiens, UniProt P08253); experiment: Inhibitory activity against MMP2
[2] = molecular target: T1, Stromelysin-1 (Homo sapiens, UniProt P08254); experiment: Inhibitory activity against MMP3 at 120 uM
Target sequence in this assay (P08254 100-477 limits assumed): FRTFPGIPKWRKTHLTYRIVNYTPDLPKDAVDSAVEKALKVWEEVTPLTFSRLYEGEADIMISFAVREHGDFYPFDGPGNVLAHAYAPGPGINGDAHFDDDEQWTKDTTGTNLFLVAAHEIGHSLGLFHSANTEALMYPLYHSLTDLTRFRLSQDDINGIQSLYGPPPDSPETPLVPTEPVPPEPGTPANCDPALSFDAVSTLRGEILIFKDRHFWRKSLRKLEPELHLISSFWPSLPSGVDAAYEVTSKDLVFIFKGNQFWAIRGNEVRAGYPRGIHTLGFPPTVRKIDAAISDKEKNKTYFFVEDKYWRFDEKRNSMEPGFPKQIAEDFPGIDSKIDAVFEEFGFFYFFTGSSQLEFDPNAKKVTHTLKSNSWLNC

[3] = molecular target: Neutrophil collagenase (Homo sapiens, UniProt P22894); experiment: Inhibitory activity against MMP8
[4] = molecular target: T1, Stromelysin-1; experiment: Inhibitory activity against MMP3
Target sequence in this assay (P08254 whole entry): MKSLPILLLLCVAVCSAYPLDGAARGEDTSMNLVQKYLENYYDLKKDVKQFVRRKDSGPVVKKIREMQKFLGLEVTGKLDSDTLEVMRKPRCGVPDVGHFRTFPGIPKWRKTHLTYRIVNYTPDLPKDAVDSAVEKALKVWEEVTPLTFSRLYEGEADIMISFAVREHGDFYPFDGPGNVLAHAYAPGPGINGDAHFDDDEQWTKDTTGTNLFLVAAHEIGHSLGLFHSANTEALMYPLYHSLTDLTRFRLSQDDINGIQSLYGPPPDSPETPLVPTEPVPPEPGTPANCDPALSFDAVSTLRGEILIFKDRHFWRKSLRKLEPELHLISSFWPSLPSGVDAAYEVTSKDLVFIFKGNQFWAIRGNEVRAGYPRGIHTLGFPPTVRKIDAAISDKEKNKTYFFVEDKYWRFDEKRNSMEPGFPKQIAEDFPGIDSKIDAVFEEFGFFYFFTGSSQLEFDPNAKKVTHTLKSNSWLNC

Sequence of Neutrophil collagenase (P22894 whole entry): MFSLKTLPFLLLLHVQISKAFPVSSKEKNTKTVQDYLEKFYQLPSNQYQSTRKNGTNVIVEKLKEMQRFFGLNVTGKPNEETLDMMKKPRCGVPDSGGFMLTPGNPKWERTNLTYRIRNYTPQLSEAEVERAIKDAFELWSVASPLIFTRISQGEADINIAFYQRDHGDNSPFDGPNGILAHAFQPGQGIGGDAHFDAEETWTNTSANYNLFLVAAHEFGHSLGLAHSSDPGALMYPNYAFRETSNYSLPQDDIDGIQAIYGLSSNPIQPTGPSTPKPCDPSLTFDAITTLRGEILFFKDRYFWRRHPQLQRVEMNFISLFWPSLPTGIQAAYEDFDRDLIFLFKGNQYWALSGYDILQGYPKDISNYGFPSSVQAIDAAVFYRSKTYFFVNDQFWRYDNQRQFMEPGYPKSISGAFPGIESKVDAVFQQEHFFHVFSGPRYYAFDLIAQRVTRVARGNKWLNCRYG
Sequence of 72 kDa type IV collagenase (P08253 whole entry): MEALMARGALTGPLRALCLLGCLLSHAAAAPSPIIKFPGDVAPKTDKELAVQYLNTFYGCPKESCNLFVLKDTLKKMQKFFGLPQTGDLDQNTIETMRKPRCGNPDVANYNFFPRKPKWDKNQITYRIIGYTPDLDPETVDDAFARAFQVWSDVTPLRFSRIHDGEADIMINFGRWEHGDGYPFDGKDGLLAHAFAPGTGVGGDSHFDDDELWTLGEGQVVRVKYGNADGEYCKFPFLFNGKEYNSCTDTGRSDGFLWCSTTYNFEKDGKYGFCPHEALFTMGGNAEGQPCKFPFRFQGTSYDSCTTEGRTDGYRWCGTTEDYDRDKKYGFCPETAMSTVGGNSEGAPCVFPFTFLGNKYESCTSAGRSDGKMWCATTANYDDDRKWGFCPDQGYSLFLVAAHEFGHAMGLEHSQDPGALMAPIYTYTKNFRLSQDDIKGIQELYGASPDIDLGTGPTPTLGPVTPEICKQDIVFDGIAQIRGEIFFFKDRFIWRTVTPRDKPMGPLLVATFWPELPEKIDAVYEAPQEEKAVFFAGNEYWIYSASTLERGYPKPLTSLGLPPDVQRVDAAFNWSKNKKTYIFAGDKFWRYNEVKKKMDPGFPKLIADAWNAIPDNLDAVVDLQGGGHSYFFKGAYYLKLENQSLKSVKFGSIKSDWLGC

IC50 [1]	inhibition [2]	IC50 [3]	IC50 [4]	SMILES
> 120 µM	22%	> 120 µM		N#Cc1ccc(-c2ccc(OCCNC(=O)NO)cc2)cc1
58 µM			200 µM	CN(CCOc1ccc(-c2ccc(C#N)cc2)cc1)C(=O)NO
685 µM		1000 µM	380 µM	CN(CCc1ccc(Oc2ccccc2)cc1)C(=O)NO
> 380 µM		> 380 µM	> 380 µM	O=C(NO)NCCc1ccc(Oc2ccccc2)cc1
